{"source": "patent US20100129478A1", "about": "“Plant Extracts and Methods and Uses Therefore” (priority 2005, published 2010)", "test_system": "human hepatic cell line HepG2", "assay": "Anti-cancer assay: cytotoxicity on HepG2 cells, trypan blue counting", "type": "cell-based", "description": "The cells were seeded at a density of 2.5×10^5 cell per ml in a 24 well plate. The cells were allowed to attach for 2 hour before adding the extracts at a concentration of 10 μg/ml. […] The cell viability was determined after 24 hours.\nSeed HepG2 at a cell density of 2.5×10^5 cells per ml. […] Incubate in 5% CO2 incubator at 37° C. for 48 hour. Trypsinize cell. Mix with 1 part trypan blue and 4 parts PBS and count the viable cells and the non-viable cells by counting the cells that has taken typan blue (non-viable cells) and the ones that has excluded it (viable cells).", "data": [{"compound": "O=C1O[C@H]([C@@H](O)CO)C(O)=C1O", "note": "[ascorbic acid]", "values": [{"measurement": "No. of live cells", "value": 66.5}]}]}
